Measured values published in ChEMBL document CHEMBL1132640, “Structure-based design, synthesis, and X-ray crystallography of a high-affinity antagonist of the Grb2-SH2 domain containing an asparagine mimetic” (J Med Chem, 1999).

Target: Growth factor receptor-bound protein 2 (Homo sapiens, UniProt P62993)
Assay: Inhibition of Grb2-SH2 domain binding to phospho-EGF receptor intracellular C-terminal domain
Assay type: cell-based

Chain of Growth factor receptor-bound protein 2 (P62993 whole entry, the tested form may be a part): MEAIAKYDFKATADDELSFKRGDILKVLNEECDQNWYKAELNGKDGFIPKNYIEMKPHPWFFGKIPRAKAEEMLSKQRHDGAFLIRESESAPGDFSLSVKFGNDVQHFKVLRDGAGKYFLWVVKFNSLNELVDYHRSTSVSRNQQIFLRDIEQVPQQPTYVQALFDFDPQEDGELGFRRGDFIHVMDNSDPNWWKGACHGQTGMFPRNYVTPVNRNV

`NC(=O)C[C@H](NC(=O)C1(NC(=O)[C@H](Cc2ccc(OP(=O)(O)O)cc2)NC(=O)OCc2cccc(N)c2)CCCCC1)C(N)=O` gave an IC50 of 1 nM.
With `NC(=O)[C@@H]1CCC=C[C@@H]1NC(=O)C1(NC(=O)[C@H](Cc2ccc(OP(=O)(O)O)cc2)NC(=O)OCc2cccc(N)c2)CCCCC1` the IC50 was > 5000 nM.
